pEC50: −log10 of the molar value.
Test system: SARS-CoV-2 (Omicron variant)
Assay: microbe, parasite or virus in culture
Assay type: cell-based
Details: Severe acute respiratory syndrome coronavirus 2, Caco-2

SMILES: CC(C)(C)[C@H](NC(=O)C(F)(F)F)C(=O)N1C[C@H]2[C@@H]([C@H]1C(=O)N[C@H](C#N)C[C@@H]1CCNC1=O)C2(C)C [PF-07321332, Nirmatrelvir]
- pEC50: 7.48
